Data: patent US12516022B2, “Derivatives of aryl hydrocarbon receptor agonists” (AZORA THERAPEUTICS, INC., priority 2021, dated 2026)

Key:
[1] = Stability of indirubin prodrugs in simulated fluids (FaSSIF, FaSSGF), 24 h at 37° C., UPLC-MS; type: physicochemical
Description: (§1) 10.41 g fasted state simulated intestinal fluid (FaSSIF) buffer concentrate was dissolved in 240.3 g deionized water and 560 mg FaSSIF powder added. The mixture was stirred until complete dissolution observed. The test compound (approx. 1-3 mg) was placed in 5.00 mL of FaSSIF solution. Samples of the solution with the test compound were taken after 24 hours in at 37° C. (oven-controlled temperature).
as §1, with “36.78” for “10.41”, “gastric” for “intestinal”, “(FaSSGF)” for “(FaSSIF)”, “961.9” for “240.3”, “60” for “560”, “FaSSGF” for “FaSSIF”
UPLC-MS analysis of the samples taken at 24 hours was carried out on a Waters Acquity UPLC system consisting of an Acquity I-Class Sample Manager-FL, Acquity I-Class Binary Solvent Manager and an Acquity UPLC Column Manager. UV detection was afforded using an Acquity UPLC PDA detector (scanning from 210 to 400 nm), whilst mass detection was achieved using an Acquity QDa detector (mass scanning from 100-1250 Da; positive and negative modes simultaneously), and ELS detection was achieved using an Acquity UPLC ELS Detector. A Waters Acquity UPLC BEH C18 column (2.1 Å˜50 mm, […]) was used to separate the analytes. Samples were prepared by dissolution (with or without sonication) into 1 mL of 50% (v/v) MeCN in water. The resulting solutions were then filtered through a […] syringe filter before submitting for analysis. All of the solvents, including formic acid and 36% ammonia solution, were purchased as the HPLC grade.

[2] = Indirubin solubility in biorelevant media (FaSSIF, FaSSGF), HPLC; type: physicochemical; conditions: FaSSGF and FaSSIF
Description: Biorelevant media was prepared as per the supplier's (Biorelevant) method, using FaSSIF/FeSSIF/FaSSGF powders. In brief, FaSSGF media was prepared using 0.06 g/L FaSSIF/FeSSIF/FaSSGF powder in 2 g/L NaCl solution, pH adjusted to 1.6 with 1N HCl. FaSSIF media was prepared with 2.24 g/L FaSSIF/FeSSIF/FaSSGF powder in sodium phosphate buffer, pH adjusted to 6.5 with 1N NaOH. (Sodium phosphate buffer prepared as a 0.42 g/L NaOH, 3.95 g/L NaH2PO4·H2O, 6.19 g/L NaCl solution).
Solubility assessments were performed as follows. An individual flask was prepared for each media and time point. Flasks were placed in a shaking water bath kept at 37° C. Flasks were removed from the bath at specified time points of 1 hour, 4 hours and 24 hours, allowed to cool, and an aliquot taken and filtered.

[3] = target: T1, AhR (Rattus norvegicus, UniProt P41738); experiment: AhR/arnt-luciferase reporter assay in rat H4IIE cells
T1 sequence (P41738 10-853): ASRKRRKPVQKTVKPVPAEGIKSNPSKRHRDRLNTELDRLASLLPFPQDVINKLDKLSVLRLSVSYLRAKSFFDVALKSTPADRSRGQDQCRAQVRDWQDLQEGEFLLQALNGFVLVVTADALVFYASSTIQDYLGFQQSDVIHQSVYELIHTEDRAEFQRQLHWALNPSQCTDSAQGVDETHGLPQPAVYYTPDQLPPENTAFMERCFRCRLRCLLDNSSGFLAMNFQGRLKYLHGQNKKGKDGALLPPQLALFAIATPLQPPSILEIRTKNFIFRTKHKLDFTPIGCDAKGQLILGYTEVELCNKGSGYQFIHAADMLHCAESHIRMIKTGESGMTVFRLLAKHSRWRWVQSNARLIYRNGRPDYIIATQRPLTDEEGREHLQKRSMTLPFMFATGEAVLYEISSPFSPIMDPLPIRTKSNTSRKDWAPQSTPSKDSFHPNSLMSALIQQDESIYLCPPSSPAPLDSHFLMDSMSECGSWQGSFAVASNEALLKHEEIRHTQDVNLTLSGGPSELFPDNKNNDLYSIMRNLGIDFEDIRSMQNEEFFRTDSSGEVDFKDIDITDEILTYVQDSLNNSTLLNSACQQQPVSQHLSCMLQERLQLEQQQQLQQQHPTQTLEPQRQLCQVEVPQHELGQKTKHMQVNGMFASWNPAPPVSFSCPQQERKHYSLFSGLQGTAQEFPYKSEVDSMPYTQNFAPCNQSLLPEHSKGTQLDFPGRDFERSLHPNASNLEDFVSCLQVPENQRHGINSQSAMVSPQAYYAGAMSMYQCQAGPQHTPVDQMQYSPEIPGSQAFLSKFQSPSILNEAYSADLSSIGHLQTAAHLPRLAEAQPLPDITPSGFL
Description: TCDD and MeBio were included in the study as positive controls. These were added into cell culture media containing charcoal-stripped fetal bovine serum to produce a 2× stock and then added to the reporter cells. The reporter cells were human Huh7 cells or Rat H4IIE cell lines with the native AhR and an AhR/arnt-Luciferase reporter vector. The final concentration of DM50 was 0.1%. Cells were incubated for 22 hours at 37° C. prior to addition of the luciferase detection reagent and measurement of activity in relative luminescence units.

Row | Fraction (percent) of indirubin ([1]; FaSSGF 37° C. 24 h) [%] | Fraction (percent) of starting material (SM) ([1]; FaSSGF 37° C. 24 h) [%] | Fraction (percent) of indirubin ([1]; FaSSIF 37° C. 24 h) [%] | Fraction (percent) of starting material (SM) ([1]; FaSSIF 37° C. 24 h) [%] | Solubility in the simulated fluids [2] | EC50 [3] [nM] | SMILES
1 | 3 | 94 | 0 | 100 |  |  | CC(=O)OCN1C(=O)/C(=C2\Nc3ccccc3C2=O)c2ccccc21
2 | 0 | 100 | 2 | 88 |  |  | C=CCOC(=O)N1C(=O)/C(=C2\Nc3ccccc3C2=O)c2ccccc21
3 | 0 | 100 | 0 | 100 |  |  | O=C1/C(=C2/C(=O)N(CSc3ccccc3)c3ccccc32)Nc2ccccc21
4 | 0 | 100 | 0 | 100 |  |  | O=C1/C(=C2/C(=O)N(COc3ccccc3)c3ccccc32)Nc2ccccc21
5 | 0 | 100 | 0 | 100 |  |  | O=C1/C(=C2/C(=O)N(CS(=O)(=O)c3ccccc3)c3ccccc32)Nc2ccccc21
6 | 2 | 100 | 2 | 91 |  |  | COCN1C(=O)/C(=C2\Nc3ccccc3C2=O)c2ccccc21
7 | 0 | 100 | 0 | 100 |  |  | O=C1Nc2ccccc2/C1=C1/Nc2ccccc2/C1=N\O
8 | 0 | 100 | 0 | 100 |  |  | O=C(O)CCC(=O)OCN1C(=O)/C(=C2\Nc3ccccc3C2=O)c2ccccc21
9 | 0 | 100 | 0 | 100 |  |  | CCOC(=O)CCC(=O)N1C(=O)/C(=C2\Nc3ccccc3C2=O)c2ccccc21
10 | 0 | 100 | 0 | 100 |  |  | O=C1/C(=C2/C(=O)N(C(=O)N3CCOCC3)c3ccccc32)Nc2ccccc21
11 | 0 | 100 | 0 | 100 |  |  | CCCCCCCCCCC(=O)N1C(=O)/C(=C2\Nc3ccccc3C2=O)c2ccccc21
12 | 0 | 100 | 0 | 100 |  |  | O=C1/C(=C2/C(=O)N(C(=O)CCCN3CCOCC3)c3ccccc32)Nc2ccccc21
13 | 0 | 100 | 0 | 100 |  |  | CN(C)CCCCNC(=O)N1C(=O)/C(=C2\Nc3ccccc3C2=O)c2ccccc21
14 | 0 | 100 | 0 | 100 |  |  | O=C1/C(=C2/C(=O)N(C(=O)NCCNS(=O)(=O)c3ccc([N+](=O)[O-])cc3)c3ccccc32)Nc2ccccc21
15 | 0 | 100 | 0 | 100 |  |  | CN(C)CCNC(=O)N1C(=O)/C(=C2\Nc3ccccc3C2=O)c2ccccc21
16 | 2 | 93 | 0 | 100 |  |  | CN1CCN(CCNC(=O)N2C(=O)/C(=C3\Nc4ccccc4C3=O)c3ccccc32)CC1

Row | Fraction (percent) of indirubin ([1]; FaSSGF 37° C. 24 h) [%] | Fraction (percent) of starting material (SM) ([1]; FaSSGF 37° C. 24 h) [%] | Fraction (percent) of indirubin ([1]; FaSSIF 37° C. 24 h) [%] | Fraction (percent) of starting material (SM) ([1]; FaSSIF 37° C. 24 h) [%] | Solubility in the simulated fluids [2] | EC50 [3] [nM] | SMILES
17 | 0 | 100 | 0 | 100 |  |  | CC(=O)NCCNC(=O)N1C(=O)/C(=C2\Nc3ccccc3C2=O)c2ccccc21
18 | 0 | 100 | 0 | 100 |  |  | CN1CCC(NC(=O)N2C(=O)/C(=C3\Nc4ccccc4C3=O)c3ccccc32)CC1=O (stereo not shown)
19 | 0 | 100 | 1 | 94 |  |  | CN(C)CCCNC(=O)N1C(=O)/C(=C2\Nc3ccccc3C2=O)c2ccccc21
20 | 0 | 100 | 0 | 100 |  |  | CS(=O)(=O)NCCNC(=O)N1C(=O)/C(=C2\Nc3ccccc3C2=O)c2ccccc21
21 | 0 | 100 | 0 | 100 |  |  | CCOC(=O)N1C(=O)/C(=C2\Nc3ccccc3C2=O)c2ccccc21
22 | 0 | 100 | 0 | 100 |  |  | Cl.NCCNC(=O)N1C(=O)/C(=C2\Nc3ccccc3C2=O)c2ccccc21
23 | 7 | 86 | 0 | 100 |  |  | Cl.NCCCNC(=O)N1C(=O)/C(=C2\Nc3ccccc3C2=O)c2ccccc21
24 | 1 | 93 | 0 | 100 |  |  | O=C1/C(=C2/C(=O)N(C(=O)NCCNS(=O)(=O)C(F)(F)F)c3ccccc32)Nc2ccccc21
25 |  |  |  |  | soluble in the simulated fluids |  | CCN(CC)CN1C(=O)/C(=C2\Nc3ccccc3C2=O)c2ccccc21 [Compound 9]
26 |  |  |  |  | soluble in the simulated fluids |  | CN1CCN(CN2C(=O)/C(=C3\Nc4ccccc4C3=O)c3ccccc32)CC1 [Compound 10]
27 | 100 | 0 | 100 | 0 |  |  | CCN(CC)CN1C(=O)/C(=C2\Nc3ccccc3C2=O)c2ccccc21 [drawing 221]
28 |  |  | 19 | 50 |  |  | CN1CCN(CN2C(=O)/C(=C3\Nc4ccccc4C3=O)c3ccccc32)CC1 [drawing 222]
29 |  |  | 100 | 0 |  |  | O=C1/C(=C2/C(=O)N(COS(=O)(=O)O)c3ccccc32)Nc2ccccc21 [drawing 224]
30 | 13 | 68 | 10 | 57 |  |  | O=C1/C(=C2/C(=O)N(C(=O)NC3CCOCC3)c3ccccc32)Nc2ccccc21 [drawing 236]
31 |  |  |  |  |  | ~654 | O=C1Nc2ccccc2/C1=C1/Nc2ccccc2C1=O [indirubin, reference compound]

Row | SMILES | Fraction (percent) of indirubin ([1]; FaSSGF 37° C. 24 h) [%] | Fraction (percent) of starting material (SM) ([1]; FaSSGF 37° C. 24 h) [%] | Fraction (percent) of indirubin ([1]; FaSSIF 37° C. 24 h) [%] | Fraction (percent) of starting material (SM) ([1]; FaSSIF 37° C. 24 h) [%] | Solubility in the simulated fluids [2] | EC50 [3] [nM]
32 | O=C1/C(=C2/C(=O)N(CO)c3ccccc32)Nc2ccccc21 [drawing 219] | 13 | 87 | 100 | 0 |  | 
